Source: US12616666B2, “Coenzyme Q10 formulations in the treatment and prevention of epidermolysis bullosa” (BPGbio, Inc., priority 2017, dated 2026)

Assays:
[1] = tested on: melanoma (SK-MEL-28) cell line; experiment: Cell proliferation with increasing Coenzyme Q10 concentration; type: cell-based; settings: SK-MEL-28, increasing concentration (FIG. 1)
Description: (§1) When applied topically to melanoma tumors in nude mice, a 1.0% CoQ10 formulation inhibited growth and angiogenesis. The mechanism involves the shifting of the cellular bioenergetics from cytoplasmic glycolysis towards mitochondrial oxidative phosphorylation (AACR 2011). The shift in cellular metabolic pathways in cancer including SCC and melanoma results in the recapitulation of the p53 regulated apoptotic potential by re-establishing the balance of pro-apoptic Bcl-2/Bax ratios in a manner conducive for cell death.

[2] = tested on: normal human keratinocytes; experiment: as above; type: cell-based; settings: increasing concentration (FIG. 1)
Description: as §1

[3] = tested on: squamous cell carcinoma (SCC-25) cell line; experiment: as above; type: cell-based; settings: SCC-25, increasing concentration (FIG. 1)
Description: as §1

adult fibroblasts = experiment: as above; type: cell-based, human; settings: normal fibroblasts, increasing concentration (FIG. 1)
Description: as §1

SK-MEL-28 melanoma cells = experiment: Western Blot of protein expression; type: cell-based
Description: FIG. 2A and FIG. 2B show the expression of isocitrate dehydrogenase (IDH-1) in SK-MEL-28 melanoma cells treated with increasing concentration of Coenzyme Q10 (50 μM or 100 μM).
(§2) FIG. 3A and FIG. 3B show the effect of Coenzyme Q10 treatment (50 μM or 100 μM) on expression of ATP Citrate lyase (ACL) in SK-MEL-28 melanoma cells. Human aortic smooth muscle cells (HASMC) were used as a control.
FIG. 4A and FIG. 4B show the effect of Coenzyme Q10 on expression of p53, pl4ARF and MDM2 in SK-MEL-28 melanoma cells.
Bcl-2, Bax and Caspase 3 are pro- and anti-apoptotic markers regulating cell death pathways. A beta-actin loading control was used.

[4] = tested on: Human aortic smooth muscle cells (HASMC); experiment: Western Blot of ACL expression in normal control cells; type: cell-based; settings: 50 μM or 100 μM
Description: as §2

SCC cell line (SCC-25) = experiment: Proteomic analysis of SCC cell line; type: cell-based; settings: 100 uM CoQ10, SCC-25
Description: Next, a proteomic analysis of an in-vitro model of squamous cell carcinoma, SCC cell line (SCC-25), was undertaken to delineate the underlying mechanistic regulating effect of the CoQ10 compositions of the invention. Table 1, shown above and reproduced below, lists the proteins identified to have a differential response to 100 uM CoQ10 treatment in SCC cells at 6 and 24 hours.

SCC cells = experiment: Apoptosis Array gene regulation; type: cell-based; settings: 100 uM Q10, SCC cells
Description: Table 3, shown above and reproduced below, lists the genes in SCC cells that are regulated by 100 uM Q10 treatment when analyzed by the Apoptosis Array.

[5] = Heat stability of CoQ10 solubilized in Polysorbate 80; type: physicochemical; settings: 25-60% CoQ10 solubilized in Polysorbate 80, heated for several hours at 55° C.
Description: Coenzyme Q10 […] is a deep yellow-orange powder and is very hydrophobic with a melting point of approximately 48 degrees centigrade. The active ingredient, CoQ10 […] Cream, ubidecarenone, USP may be adversely affected by heat and light, according to the literature. […] Heating the mixture to 50-55° C. (i.e., 2-7° C. above the melting point of CoQ10) greatly speeds the solubilization of CoQ10. To manufacture the topical CoQ10 cream, two CoQ10 concentrate phases (CoQ10/Polysorbate 80 and water-lecithin-glycol-phenoxyethanol) were each heated separately to 50-55° C. with the water phase added to the solubilized CoQ10 and were mixed with high shear homogenization to form a microemulsion concentrate of CoQ10. The CoQ10 concentrate was then added to a water-in-oil (W/O) cream emulsion base to produce the final CoQ10 cream. The final concentration of CoQ10 in the cream was 3.0%. The CoQ10 3% cream is further described in International Publication No. WO2008/116135, the entire content of which is incorporated by reference in its entirety herein.

IL6 = experiment: Upregulation of inflammatory cytokines after topical CoQ10; settings: topical application
[6] = SK-MEL-28, 50 μM or 100 μM for 12 or 24 hours
[7] = direction: Decrease, at 6 and 24 hr
[8] = direction: Decrease, at 24 hr only
[9] = direction: Increase, at 6 and 24 hr

breakdown of CoQ10 on heating [5]: no measurable breakdown
SMILES: COC1=C(OC)C(=O)C(C/C=C(\C)CC/C=C(\C)CC/C=C(\C)CC/C=C(\C)CC/C=C(\C)CC/C=C(\C)CC/C=C(\C)CC/C=C(\C)CC/C=C(\C)CCC=C(C)C)=C(C)C1=O [CoQ10, Coenzyme Q10]
cell proliferation rate [1]: dose dependent decrease | cell proliferation rate ([1]; listed as Coenzyme Q10): concentration dependent decrease | cell proliferation rate [2]: no effect | cell proliferation rate [3]: dose dependent decrease | cell proliferation rate ([3]; listed as Coenzyme Q10): concentration dependent decrease | cell proliferation rate (adult fibroblasts): no effect | expression of MDM2 (SK-MEL-28 melanoma cells; SK-MEL-28 (FIG. 4)): decrease | expression of ATP Citrate lyase (ACL) (SK-MEL-28 melanoma cells; SK-MEL-28, 50 μM or 100 μM): concentration dependent decrease | expression of isocitrate dehydrogenase (IDH-1) (SK-MEL-28 melanoma cells; SK-MEL-28, 50 μM or 100 μM): concentration dependent increase | expression of anti-apoptotic bcl-2 protein (SK-MEL-28 melanoma cells; [6]): concentration dependent decrease | expression of caspase 3 (SK-MEL-28 melanoma cells; [6]): progressive dose-dependent increase | expression of pro-apoptotic bax (SK-MEL-28 melanoma cells; [6]): concentration dependent increase | expression of ATP Citrate lyase (ACL) [4]: not observed | NM23 protein (NME1) Response (SCC cell line (SCC-25); at 24 hr): decrease at 24 hr | Keratin 1 (KRT1) Response (fold change) (SCC cell line (SCC-25); [7]): Decrease (2.3) at 6 and 24 hr fold change | Transaldolase 1 (TALDO1) Response (fold change) (SCC cell line (SCC-25); [7]): Decrease (1.5) at 6 and 24 hr fold change | Rho GDP dissociation inhibitor (GDI) alpha (ARHGDIA) Response (fold change) (SCC cell line (SCC-25); direction: Decrease, at 6 hr only): Decrease (1.5) at 6 hr only fold change | Proteasome activator subunit 3 (PSME3) Response (fold change) (SCC cell line (SCC-25); [8]): Decrease (1.3) at 24 hr only fold change | Protessome Beta 7 (PSMB7) Response (fold change) (SCC cell line (SCC-25); [8]): Decrease (1.6) at 24 hr only fold change | Heat shock 27 kDa protein 1 (HSPB1) Response (fold change) (SCC cell line (SCC-25); [9]): Increase (−1.9) at 6 and 24 hr fold change | Keratin 13 (KRT13) Response (fold change) (SCC cell line (SCC-25); [9]): Increase (−1.5) at 6 and 24 hr fold change | Keratin 14 (KRT14) Response (fold change) (SCC cell line (SCC-25); [9]): Increase (−1.6) at 6 and 24 hr fold change | NM23 protein (NME1) Response (fold change) (SCC cell line (SCC-25); printed direction: increase, at 6 hr): increase (−1.2) at 6 hr, fold change | BCL2L1 gene Regulation (SCC cells; 6 hours): Down regulated at 6 hours and | CARD6 gene Regulation (SCC cells; 6 hours): Down regulated at 6 hours. | AKT1 gene Regulation (SCC cells; 24 hours): then up regulated at 24 hours. | BAG4 gene Regulation (SCC cells; 24 hours): Up regulated at 24 hours. | BAX gene Regulation (SCC cells; 24 hours): Up regulated at 24 hours. | BCL2L1 gene Regulation (SCC cells; 24 hours): then up regulated at 24 hours. | BNIP3 gene Regulation (SCC cells; 24 hours): Down regulated at 24 hours. | CASP6 gene Regulation (SCC cells; 24 hours): Up regulated at 24 hours. | CASP7 gene Regulation (SCC cells; 24 hours): Up regulated at 24 hours. | GADD45A gene Regulation (SCC cells; 24 hours): Up regulated at 24 hours. | TP53 gene Regulation (SCC cells; 24 hours): Up regulated at 24 hours. | TP73 gene Regulation (SCC cells; 24 hours): then up regulated at 24 hours. | upregulation of inflammatory cytokines (IL6) (IL6): block the upregulation
